The source of these data is patent publication US11440899B2, “Pyrimidine TBK/IKKe inhibitor compounds and uses thereof” (Merck Patent GmbH, priority 2017, dated 2022).

One assay concerns the target TBK1 (Homo sapiens (Human), UniProt Q9UHD2). The experiment in a line: TBK Biochemical Assay. Here is the method:
Example 106: TBK Biochemical Assay Test compounds were transferred into Labcyte polypropylene 384 well plates ([…]-25) and diluted to 3 mM using DMSO. 3 mM test compounds were dispensed using Labcyte ECHO dose response module into Greiner 784075 plates (columns 3-12 and 13-22, 10 point 1:4) so that high concentration was 30 uM final. 100 uM of a reference compound (1 uM final high concentration). Backfilling was performed if necessary so that all wells contain 1% DMSO final: add 75 nl DMSO/well into columns 1, 2 and 24 using Labcyte Echo. add 75 nl 1.0 mM staurosporine/well into column 23 using Labcyte Echo (10 uM final) add 4.5 ul enzyme/well using multidrop dispenser add 3 ul substrate/well using multidrop dispenser incubate at 25° C. in Heidolph incubator for 90 min. add 7.5 ul 2× stop buffer using multidrop dispenser read on labchip ez reader II using TBK1.job Raw data files were opened in the Caliper LabChip Reviewer program (Version 3.0.265.0 SP2) and peak assignments were adjusted to reflect “substrate first” with the software's post-run analysis options. A spline-fit baseline was applied using the software's analysis algorithm.

The next assay concerns the target IKKe (Homo sapiens (Human), UniProt Q14164). The experiment in a line: IKKe Biochemical Assay. The protocol:
IKKe Biochemical Assay Test compounds were transferred into Labcyte polypropylene 384 well plates ([…]-25) and diluted to 3 mM using DMSO. 3 mM test compounds were dispensed using Labcyte ECHO dose response module into Greiner 784075 plates (columns 3-12 and 13-22, 10 point 1:4) so that high concentration was 30 uM final. 100 uM of a reference compound (1 uM final high concentration). Backfilling was performed if necessary so that all wells contain 1% DMSO final: add 75 nl DMSO/well into columns 1, 2 and 24 using Labcyte Echo. add 75 nl 1.0 mM staurosporine/well into column 23 using Labcyte Echo (10 uM final) add 4.5 ul enzyme/well using multidrop dispenser add 3 ul substrate/well using multidrop dispenser incubate at 25° C. for 90 min. add 7.5 ul 2× stop buffer read on labchip ez reader II using IKKε. job Raw data files were opened in the Caliper LabChip Reviewer program (Version 3.0.265.0 SP2) and peak assignments were adjusted to reflect “substrate first” with the software's post-run analysis options. A spline-fit baseline was applied using the software's analysis algorithm.

SMILES strings stand for the structures. pIC50: −log10 of the molar value. Structures can show the parent of a compound that is named as a salt.

Chain of IKKe (Q14164 whole entry, species assumed): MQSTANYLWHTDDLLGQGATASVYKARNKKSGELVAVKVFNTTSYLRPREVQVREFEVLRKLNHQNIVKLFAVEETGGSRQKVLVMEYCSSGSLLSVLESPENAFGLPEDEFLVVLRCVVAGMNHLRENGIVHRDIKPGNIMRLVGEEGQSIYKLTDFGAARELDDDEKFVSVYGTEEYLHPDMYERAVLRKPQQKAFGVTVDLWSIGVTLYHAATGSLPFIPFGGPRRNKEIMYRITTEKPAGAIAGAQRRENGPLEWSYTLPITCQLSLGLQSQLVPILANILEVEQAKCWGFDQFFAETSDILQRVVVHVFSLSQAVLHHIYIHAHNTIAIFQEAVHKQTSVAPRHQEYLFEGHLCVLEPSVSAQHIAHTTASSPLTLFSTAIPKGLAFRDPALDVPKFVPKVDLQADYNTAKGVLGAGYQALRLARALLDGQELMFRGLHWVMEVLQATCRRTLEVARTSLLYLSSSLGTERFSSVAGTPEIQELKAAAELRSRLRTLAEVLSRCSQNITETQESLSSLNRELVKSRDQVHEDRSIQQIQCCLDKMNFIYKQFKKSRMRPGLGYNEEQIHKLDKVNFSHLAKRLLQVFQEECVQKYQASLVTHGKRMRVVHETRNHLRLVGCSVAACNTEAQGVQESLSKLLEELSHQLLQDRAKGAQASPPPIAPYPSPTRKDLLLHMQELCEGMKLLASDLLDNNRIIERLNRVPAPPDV
Chain of TBK1 (Q9UHD2 whole entry, species assumed): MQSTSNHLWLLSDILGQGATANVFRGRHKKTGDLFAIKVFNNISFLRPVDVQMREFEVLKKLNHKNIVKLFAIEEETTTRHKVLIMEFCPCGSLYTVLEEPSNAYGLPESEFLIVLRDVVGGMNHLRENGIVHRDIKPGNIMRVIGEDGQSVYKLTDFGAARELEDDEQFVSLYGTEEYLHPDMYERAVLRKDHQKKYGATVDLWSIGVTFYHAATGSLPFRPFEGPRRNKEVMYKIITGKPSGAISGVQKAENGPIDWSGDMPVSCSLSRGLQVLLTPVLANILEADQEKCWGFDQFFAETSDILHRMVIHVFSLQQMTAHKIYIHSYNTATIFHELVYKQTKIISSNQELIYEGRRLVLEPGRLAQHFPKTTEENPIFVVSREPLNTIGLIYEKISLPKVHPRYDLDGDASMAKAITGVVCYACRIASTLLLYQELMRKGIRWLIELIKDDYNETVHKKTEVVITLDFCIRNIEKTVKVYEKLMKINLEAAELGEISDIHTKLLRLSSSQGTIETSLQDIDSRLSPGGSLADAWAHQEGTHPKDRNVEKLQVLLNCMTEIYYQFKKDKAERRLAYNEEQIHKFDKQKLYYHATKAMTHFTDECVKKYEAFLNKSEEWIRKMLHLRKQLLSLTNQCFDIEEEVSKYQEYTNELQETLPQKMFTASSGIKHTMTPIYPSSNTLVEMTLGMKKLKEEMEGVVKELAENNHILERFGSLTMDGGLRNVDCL

Take `COc1nc(Nc2cc(-c3ccc(OC4CCN(C(=O)c5cocn5)CC4)c(C#N)c3)ncn2)ccc1C(=O)N(C)C` [Example 44, 6-([6-[3-cyano-4-([1-[(1,3-oxazol-4-yl)carbonyl]piperidin-4-yl]oxy)phenyl]pyrimidin-4-yl]amino)-2-methoxy-N,N-dimethylpyridine-3-carboxamide]: the pIC50 at TBK1 and on IKKe was greater than 7.00 in each case.
As for `COc1nc(Nc2cc(-c3ccc(OC4CCN(C(=O)[C@H](C)O)CC4)c(C#N)c3)ncn2)ccc1C(=O)N(C)C` [Example 105, 6-([6-[3-cyano-4-([1-[(2S)-2-hydroxypropanoyl]piperidin-4-yl]oxy)phenyl]pyrimidin-4-yl]amino)-2-methoxy-N,N-dimethylpyridine-3-carboxamide], the pIC50 on TBK1 and at IKKe was greater than 7.00 in each case.
As for `COc1cc(Nc2cc(-c3ccc(OC4CCOCC4)c(C#N)c3)ncn2)ncc1C1CCN(C)CC1` [Example 36, 5-(6-[[4-methoxy-5-(1-methylpiperidin-4-yl)pyridin-2-yl]amino]pyrimidin-4-yl)-2-(oxan-4-yloxy)benzonitrile], the pIC50 against TBK1 and against IKKe was greater than 7.00 throughout.
For `COc1nc(Nc2cc(-c3ccc(OC4CCN(C(=O)[C@H](C)O)CC4(F)F)c(C#N)c3)ncn2)ccc1N1CCN(C2COC2)C[C@H]1C` (stereo partly drawn) [Example 71, 2-([3,3-difluoro-1-[(2S)-2-hydroxypropanoyl]piperidin-4-yl]oxy)-5-[6-([6-methoxy-5-[(2R)-2-methyl-4-(oxetan-3-yl)piperazin-1-yl]pyridin-2-yl]amino)pyrimidin-4-yl]benzonitrile], the pIC50 against TBK1 and against IKKe was greater than 7.00 each time.
In the case of `COc1nc(Nc2cc(-c3ccc(OC4CCOCC4)c(C#N)c3)ncn2)ccc1C(=O)N1C2CCCC1COC2` [Example 90, 5-(6-[[6-methoxy-5-([3-oxa-9-azabicyclo[3.3.1]nonan-9-yl]carbonyl)pyridin-2-yl]amino]pyrimidin-4-yl)-2-(oxan-4-yloxy)benzonitrile], the pIC50 on TBK1 and on IKKe was greater than 7.00 throughout.
As for `COc1nc(Nc2cc(-c3ccc(OC4CCN(C(=O)C(C)O)CC4)c(C#N)c3)ncn2)ccc1N1CCN(C)CC1` (stereo not drawn) [Example 53, 2-[[1-(2-hydroxypropanoyl)piperidin-4-yl]oxy]-5-(6-[[6-methoxy-5-(4-methylpiperazin-1-yl)pyridin-2-yl]amino]pyrimidin-4-yl)benzonitrile], the pIC50 against TBK1 and against IKKe was greater than 7.00 throughout.
On to `COc1nc(Nc2cc(-c3ccc(OC4CCOCC4)c(C#N)c3)ncn2)ccc1C1CCN(CC(F)(F)F)CC1` [Example 27, 5-[6-([6-methoxy-5-[1-(2,2,2-trifluoroethyl)piperidin-4-yl]pyridin-2-yl]amino)pyrimidin-4-yl]-2-(oxan-4-yloxy)benzonitrile], for which the pIC50 against TBK1 and against IKKe was 6.00 to 7.00 throughout.
Regarding `COc1nc(Nc2cc(-c3ccc(OC4CCN(C)C4)c(C#N)c3)ncn2)ccc1C(=O)N(C)C` (stereo not drawn) [Example 39, 6-[(6-[3-cyano-4-[(1-methylpyrrolidin-3-yl)oxy]phenyl]pyrimidin-4-yl)amino]-2-methoxy-N,N-dimethylpyridine-3-carboxamide], the pIC50 on TBK1 and against IKKe was 6.00 to 7.00 throughout.
For the compound `COc1nc(Nc2cc(-c3ccc(OC4CCOCC4)c(C#N)c3)ncn2)ccc1C(=O)N1CC2COCC2C1` (stereo not drawn) [Example 6, 5-(6-[[5-([hexahydro-1H-furo[3,4-c]pyrrol-5-yl]carbonyl)-6-methoxypyridin-2-yl]amino]pyrimidin-4-yl)-2-(oxan-4-yloxy)benzonitrile], the pIC50 against TBK1 and against IKKe was greater than 7.00 in each case.
On to `CN(C)C(=O)c1ccc(Nc2cc(-c3ccc(OC4CCOCC4)c(C#N)c3)ncn2)nc1` [Example 30, 6-([6-[3-cyano-4-(oxan-4-yloxy)phenyl]pyrimidin-4-yl]amino)-N,N-dimethylpyridine-3-carboxamide], for which the pIC50 against TBK1 and at IKKe was greater than 7.00 throughout.
In the case of `COc1cc(Nc2cc(-c3ccc(OC4CCOCC4)c(C#N)c3)ncn2)ncc1N1CCN(C)CC1` [Example 33, 5-(6-[[4-methoxy-5-(4-methylpiperazin-1-yl)pyridin-2-yl]amino]pyrimidin-4-yl)-2-(oxan-4-yloxy)benzonitrile], the pIC50 at TBK1 and on IKKe was greater than 7.00 throughout.
With `COc1cc(Nc2cc(-c3ccc(OC4CCOCC4)c(C#N)c3)ncn2)cnc1C1CCN(C)CC1` [Example 35, 5-(6-[[5-methoxy-6-(1-methylpiperidin-4-yl)pyridin-3-yl]amino]pyrimidin-4-yl)-2-(oxan-4-yloxy)benzonitrile], the negative logarithm of the IC50 (pIC50) against TBK1 and against IKKe was 6.00 to 7.00 throughout.
As to `COc1nc(Nc2cc(-c3ccc(OC4CCN(C(=O)[C@@H](C)O)CC4(F)F)c(C#N)c3)ncn2)ccc1N1CCN(C2COC2)CC1` (stereo partly drawn) [Example 77, 2-([3,3-difluoro-1-[(2R)-2-hydroxypropanoyl]piperidin-4-yl]oxy)-5-[6-([6-methoxy-5-[4-(oxetan-3-yl)piperazin-1-yl]pyridin-2-yl]amino)pyrimidin-4-yl]benzonitrile], the negative-log IC50 (pIC50) against TBK1 and against IKKe was greater than 7.00 throughout.
Take `COc1nc(Nc2cc(-c3cnc(OC4CCOCC4)c(C#N)c3)ncn2)ccc1N1CCN(C)CC1` [Example 23, 5-(6-[[6-methoxy-5-(4-methylpiperazin-1-yl)pyridin-2-yl]amino]pyrimidin-4-yl)-2-(oxan-4-yloxy)pyridine-3-carbonitrile]: the pIC50 against TBK1 and against IKKe was greater than 7.00 each time.
As to `COc1nc(Nc2cc(-c3ccc(OC4CCN(C(=O)[C@@H](C)O)CC4(F)F)c(C#N)c3)ncn2)ccc1N1CCN(C)C[C@H]1C` (stereo partly drawn) [Example 66, 2-([3,3-difluoro-1-[(2R)-2-hydroxypropanoyl]piperidin-4-yl]oxy)-5-[6-([5-[(2R)-2,4-dimethylpiperazin-1-yl]-6-methoxypyridin-2-yl]amino)pyrimidin-4-yl]benzonitrile hydrochloride], the pIC50 at TBK1 and against IKKe was greater than 7.00 throughout.
For `CN1CCN(c2ccc(Nc3cc(-c4ccc(OC5CCOCC5)c(C#N)c4)ncn3)nc2)CC1` [Example 29, 5-(6-[[5-(4-methylpiperazin-1-yl)pyridin-2-yl]amino]pyrimidin-4-yl)-2-(oxan-4-yloxy)benzonitrile], the pIC50 at TBK1 and against IKKe was greater than 7.00 throughout.
As for `COc1nc(Nc2cc(-c3ccc(O[C@@H]4CCN(C(=O)[C@H](C)O)CC4(F)F)c(C#N)c3)ncn2)ccc1N1CCN(C2COC2)C[C@@H]1C` [Example 102, 2-[[(4R)-3,3-difluoro-1-[(2S)-2-hydroxypropanoyl]piperidin-4-yl]oxy]-5-[6-([6-methoxy-5-[(2S)-2-methyl-4-(oxetan-3-yl)piperazin-1-yl]pyridin-2-yl]amino)pyrimidin-4-yl]benzonitrile], the pIC50 against TBK1 and on IKKe was greater than 7.00 in each case.
`COc1nc(Nc2cc(-c3ccc(OC4CCOCC4)c(C#N)c3)ncn2)ccc1N1C[C@@H](C)O[C@@H](C)C1` [Example 15, 5-[6-([5-[(2R,6S)-2,6-dimethylmorpholin-4-yl]-6-methoxypyridin-2-yl]amino)pyrimidin-4-yl]-2-(oxan-4-yloxy)benzonitrile]: the pIC50 at TBK1 and on IKKe was greater than 7.00 throughout.
Take `COc1nc(Nc2cc(-c3ccc(O[C@@H]4CCN(C(=O)[C@H](C)O)CC4(F)F)c(C#N)c3)ncn2)ccc1N1CCN(C2COC2)CC1` [Example 92, 2-[[(4R)-3,3-difluoro-1-[(2S)-2-hydroxypropanoyl]piperidin-4-yl]oxy]-5-[6-([6-methoxy-5-[4-(oxetan-3-yl)piperazin-1-yl]pyridin-2-yl]amino)pyrimidin-4-yl]benzonitrile]: the pIC50 at TBK1 and against IKKe was greater than 7.00 each time.
As to `COc1nc(Nc2cc(-c3ccc(O[C@H]4CCN(C(=O)CO)C[C@H]4F)c(C#N)c3)ncn2)ccc1C(=O)N(C)C` [Example 47, 6-[[6-(3-cyano-4-[[(3R,4S)-3-fluoro-1-(2-hydroxyacetyl)piperidin-4-yl]oxy]phenyl)pyrimidin-4-yl]amino]-2-methoxy-N,N-dimethylpyridine-3-carboxamide], the pIC50 against TBK1 and against IKKe was greater than 7.00 each time.
With `COc1nc(Nc2cc(-c3ccc(OC4CCN(C(=O)[C@@H](C)O)CC4(F)F)c(C#N)c3)ncn2)ccc1N1CCN(C)C[C@@H]1C` (stereo partly drawn) [Example 63, 2-([3,3-difluoro-1-[(2R)-2-hydroxypropanoyl]piperidin-4-yl]oxy)-5-[6-([5-[(2S)-2,4-dimethylpiperazin-1-yl]-6-methoxypyridin-2-yl]amino)pyrimidin-4-yl]benzonitrile hydrochloride], the pIC50 against TBK1 and against IKKe was greater than 7.00 in each case.

Broadly, the pIC50 is the IC50 on a negative log10 scale, so that one unit is a factor of ten. A lower pIC50 goes with a high IC50.
